The text below walks through data of paper PMC9679998 (ACS Chemical Biology, 2022).

Test [1] deals with T1, adenosine A1 receptor (A1AR) (Homo sapiens, UniProt P30542).
T1 construct: gene ADORA1
T1 sequence (P30542 1-326): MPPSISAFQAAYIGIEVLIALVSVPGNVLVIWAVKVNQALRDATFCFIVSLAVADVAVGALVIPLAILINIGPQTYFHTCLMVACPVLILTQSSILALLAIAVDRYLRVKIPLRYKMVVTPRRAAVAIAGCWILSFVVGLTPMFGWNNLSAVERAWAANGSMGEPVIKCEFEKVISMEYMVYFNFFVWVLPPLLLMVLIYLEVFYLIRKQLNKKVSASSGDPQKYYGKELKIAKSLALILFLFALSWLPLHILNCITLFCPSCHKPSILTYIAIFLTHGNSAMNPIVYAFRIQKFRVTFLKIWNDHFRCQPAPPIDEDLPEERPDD
Nature of the test: single-point [3H]DPCPX radioligand displacement at […] ([…]). Background: Displacement assays read how much labelled ligand stays bound in the presence of the test substance.

Test [2] deals with T1, adenosine A1 receptor (A1AR). Put plainly: [3H]DPCPX radioligand displacement on CHO-hA1AR membranes with […] h or […] h preincubation (apparent pKi […] and […]), wash-out, gel labeling, pull-down LC-MS/MS. The format is binding.

Turning to `C#CCNc1nc(SCCCNC(=O)c2ccc(S(=O)(=O)F)cc2)c(C#N)c(-c2ccc3c(c2)OCO3)c1C#N` [compound 1, 1], the “% displacement at 1 μM” value in test [1] was ~ 70.
Take `C#CCN(CCCSc1nc(N)c(C#N)c(-c2ccc3c(c2)OCO3)c1C#N)C(=O)c1ccc(S(=O)(=O)F)cc1` [compound 4, LUF7909]: in test [2], the Ki came out at 16 nM.
